Biological target: Protein arginine N-methyltransferase 5 (Homo sapiens, UniProt O14744)
Experiment: TR-FRET Assay: Protein arginine methyltransferase 5 (PRMT5) is a type II arginine methyltransferase that catalyze mono- and symmetric […] on arginine residues of histone or non-histone proteins in presence of S-adenosylmethionine (AdoMet or SAM) a cofactor responsible for donating the methyl group. PRMT5 is reported to be overexpressed in several human cancers. To identify compounds that inhibit the PRMT5 and decrease its activity, a TR-FRET based assay has been established. Time-resolved fluorescence resonance energy transfer (TR-FRET) HTS assays are homogeneous proximity assays where the interaction of two dye-labeled binding partners is detected by the energy transfer between a donor and an acceptor dye, and the subsequent light emission by the acceptor dye. PRMT5 catalyzes Histone H4 peptide [1-16] which is biotin tagged to the Lysine amino acid at carboxyl end, in presence of S-adenosyl-1-methionine (SAM) to methylate the peptide. The antibody specific to mono methylated H4 peptide (H4R3) with Ig conjugate binds to the methylated peptide, indirectly binding to the Europium lanthanide. SureLight Allophycocyanin-Streptavidin binds to the biotin tag of the peptide, therefore accepting the energy transferred from the Europium lanthanide. This energy transfer between Europium to SureLight Allophycocyanin is a direct measure of the activity/inhibition of the PRMT5 enzyme. […]

Chain of Protein arginine N-methyltransferase 5 (O14744 whole entry): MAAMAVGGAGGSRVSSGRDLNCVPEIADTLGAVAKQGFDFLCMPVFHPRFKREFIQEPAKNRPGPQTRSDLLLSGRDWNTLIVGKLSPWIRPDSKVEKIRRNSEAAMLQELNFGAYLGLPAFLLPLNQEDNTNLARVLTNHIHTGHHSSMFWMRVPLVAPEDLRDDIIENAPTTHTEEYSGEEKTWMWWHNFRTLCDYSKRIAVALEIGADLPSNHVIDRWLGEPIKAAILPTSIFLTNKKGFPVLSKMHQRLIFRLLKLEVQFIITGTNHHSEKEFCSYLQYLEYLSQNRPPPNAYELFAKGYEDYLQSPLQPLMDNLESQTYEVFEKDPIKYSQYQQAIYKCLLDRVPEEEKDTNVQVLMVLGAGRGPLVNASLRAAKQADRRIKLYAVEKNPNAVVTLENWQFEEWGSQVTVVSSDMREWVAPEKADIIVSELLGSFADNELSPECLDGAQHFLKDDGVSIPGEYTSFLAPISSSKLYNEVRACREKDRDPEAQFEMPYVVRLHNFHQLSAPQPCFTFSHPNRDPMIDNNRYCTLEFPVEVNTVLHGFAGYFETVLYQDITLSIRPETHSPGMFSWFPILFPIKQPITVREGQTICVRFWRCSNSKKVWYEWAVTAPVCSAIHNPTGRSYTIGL

IC50: 53 nM
Structure (SMILES): O=C1N(Cc2cnc(-c3cccnc3)cn2)CCN1C[C@H](O)CN1CCc2ccccc2C1
